Source: ChEMBL document CHEMBL4507261, “Data for DCP probe A-192621” (2021)

What was measured:
[1] = test system: Phosphatidylinositol 4,5-bisphosphate 3-kinase catalytic subunit alpha isoform (Homo sapiens), P42336 [E542K]; details: Compound concentration 1000.0 nM
[2] = target: Wee1-like protein kinase (Homo sapiens) (UniProt P30291); details: Compound concentration 1000.0 nM
[3] = target: Casein kinase I isoform gamma-1 (Homo sapiens) (UniProt Q9HCP0); details: Compound concentration 1000.0 nM
[4] = target: Insulin receptor (Homo sapiens) (UniProt P06213); details: Compound concentration 1000.0 nM
[5] = target: MAP/microtubule affinity-regulating kinase 3 (Homo sapiens) (UniProt P27448); details: Compound concentration 1000.0 nM
[6] = target: Calcium/calmodulin-dependent protein kinase type II subunit delta (Homo sapiens) (UniProt Q13557); details: Compound concentration 1000.0 nM
[7] = target: Serine/threonine-protein kinase Nek1 (Homo sapiens) (UniProt Q96PY6); details: Compound concentration 1000.0 nM
[8] = target: Atypical kinase COQ8B, mitochondrial (Homo sapiens) (UniProt Q96D53); details: Compound concentration 1000.0 nM
[9] = target: Calcium/calmodulin-dependent protein kinase type 1B (Homo sapiens) (UniProt Q6P2M8); details: Compound concentration 1000.0 nM
[10] = target: Dual specificity mitogen-activated protein kinase kinase 1 (Homo sapiens) (UniProt Q02750); details: Compound concentration 1000.0 nM
[11] = target: T1, Muscarinic acetylcholine receptor M2 (Homo sapiens) (UniProt P08172); test: M2 (h) Eurofins-Cerep binding assay; design: ligand concentration 2 nM; details: filed as antagonist, Compound concentration 10.0 uM
T1 sequence (whole entry): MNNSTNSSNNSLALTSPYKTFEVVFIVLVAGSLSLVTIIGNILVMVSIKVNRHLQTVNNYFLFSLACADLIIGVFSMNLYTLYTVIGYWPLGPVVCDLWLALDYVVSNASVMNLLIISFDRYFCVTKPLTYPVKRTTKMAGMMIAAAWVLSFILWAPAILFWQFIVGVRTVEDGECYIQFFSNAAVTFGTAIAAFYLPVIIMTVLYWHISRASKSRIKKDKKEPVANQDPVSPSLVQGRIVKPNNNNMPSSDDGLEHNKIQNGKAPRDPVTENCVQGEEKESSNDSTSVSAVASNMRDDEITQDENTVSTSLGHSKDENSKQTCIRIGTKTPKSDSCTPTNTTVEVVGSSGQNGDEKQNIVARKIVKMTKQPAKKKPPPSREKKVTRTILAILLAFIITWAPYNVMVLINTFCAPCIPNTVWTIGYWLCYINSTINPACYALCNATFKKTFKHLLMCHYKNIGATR

[12] = target: Tyrosine-protein kinase JAK3 (Homo sapiens) (UniProt P52333); details: Compound concentration 1000.0 nM
[13] = target: Ephrin type-A receptor 1 (Homo sapiens) (UniProt P21709); details: Compound concentration 1000.0 nM
[14] = target: Ephrin type-B receptor 2 (Homo sapiens) (UniProt P29323); details: Compound concentration 1000.0 nM
[15] = test system: Epidermal growth factor receptor (Homo sapiens), P00533 [UNDEFINED MUTATION]; details: Compound concentration 1000.0 nM
[16] = test system: Tyrosine-protein kinase ABL1 (Homo sapiens), P00519 [Y253F]; details: Compound concentration 1000.0 nM
[17] = test system: Tyrosine-protein kinase ABL1 (Homo sapiens), P00519 [F317I]; details: Compound concentration 1000.0 nM
[18] = target: Histamine H1 receptor (Homo sapiens) (UniProt P35367); test: H1 (h) Eurofins-Cerep binding assay; design: ligand concentration 1 nM; details: filed as antagonist, Compound concentration 10.0 uM
[19] = target: Serine/threonine-protein kinase 36 (Homo sapiens) (UniProt Q9NRP7); details: Compound concentration 1000.0 nM
[20] = target: Microtubule-associated serine/threonine-protein kinase 1 (Homo sapiens) (UniProt Q9Y2H9); details: Compound concentration 1000.0 nM
[21] = target: Tyrosine-protein kinase Tec (Homo sapiens) (UniProt P42680); details: Compound concentration 1000.0 nM
[22] = target: Cholecystokinin receptor type A (Homo sapiens) (UniProt P32238); test: CCK1 (CCKA) (h) Eurofins-Cerep binding assay; design: ligand concentration 0.08 nM; details: filed as agonist, Compound concentration 10.0 uM
[23] = test system: Phosphatidylinositol 4,5-bisphosphate 3-kinase catalytic subunit alpha isoform (Homo sapiens), P42336 [M1043I]; details: Compound concentration 1000.0 nM
[24] = target: Androgen receptor (Homo sapiens) (UniProt P10275); test: AR (h) Eurofins-Cerep binding assay; design: ligand concentration 1 nM; details: filed as agonist, Compound concentration 10.0 uM
[25] = target: Tyrosine-protein kinase ITK/TSK (Homo sapiens) (UniProt Q08881); details: Compound concentration 1000.0 nM
[26] = test system: Tyrosine-protein kinase ABL1 (Homo sapiens), P00519 [F317L]; details: Compound concentration 1000.0 nM
[27] = target: Sodium-dependent serotonin transporter (Homo sapiens) (UniProt P31645); test: 5-HT transporter (h) Eurofins-Cerep binding assay; design: ligand concentration 2 nM; details: filed as antagonist, Compound concentration 10.0 uM
[28] = test system: Fibroblast growth factor receptor 3 (Homo sapiens), P22607 [G697C]; details: Compound concentration 1000.0 nM
[29] = test system: Hepatocyte growth factor receptor (Homo sapiens), P08581 [M1250T]; details: Compound concentration 1000.0 nM
[30] = target: Cyclin-dependent kinase 11A (Homo sapiens) (UniProt Q9UQ88); details: Compound concentration 1000.0 nM
[31] = target: Serine/threonine-protein kinase 33 (Homo sapiens) (UniProt Q9BYT3); details: Compound concentration 1000.0 nM
[32] = target: Mitogen-activated protein kinase 14 (Homo sapiens) (UniProt Q16539); details: Compound concentration 1000.0 nM
[33] = target: Interleukin-1 receptor-associated kinase 3 (Homo sapiens) (UniProt Q9Y616); details: Compound concentration 1000.0 nM
[34] = test system: Phosphatidylinositol 4,5-bisphosphate 3-kinase catalytic subunit alpha isoform (Homo sapiens), P42336 [C420R]; details: Compound concentration 1000.0 nM
[35] = target: Bone morphogenetic protein receptor type-2 (Homo sapiens) (UniProt Q13873); details: Compound concentration 1000.0 nM
[36] = target: Calcium/calmodulin-dependent protein kinase type II subunit beta (Homo sapiens) (UniProt Q13554); details: Compound concentration 1000.0 nM
[37] = test system: Receptor-type tyrosine-protein kinase FLT3 (Homo sapiens), P36888 [UNDEFINED MUTATION]; details: Compound concentration 1000.0 nM
[38] = target: Non-receptor tyrosine-protein kinase TYK2 (Homo sapiens) (UniProt P29597); details: Compound concentration 1000.0 nM

Dual specificity mitogen-activated protein kinase kinase 1 (Homo sapiens), sequence (Q02750 whole entry): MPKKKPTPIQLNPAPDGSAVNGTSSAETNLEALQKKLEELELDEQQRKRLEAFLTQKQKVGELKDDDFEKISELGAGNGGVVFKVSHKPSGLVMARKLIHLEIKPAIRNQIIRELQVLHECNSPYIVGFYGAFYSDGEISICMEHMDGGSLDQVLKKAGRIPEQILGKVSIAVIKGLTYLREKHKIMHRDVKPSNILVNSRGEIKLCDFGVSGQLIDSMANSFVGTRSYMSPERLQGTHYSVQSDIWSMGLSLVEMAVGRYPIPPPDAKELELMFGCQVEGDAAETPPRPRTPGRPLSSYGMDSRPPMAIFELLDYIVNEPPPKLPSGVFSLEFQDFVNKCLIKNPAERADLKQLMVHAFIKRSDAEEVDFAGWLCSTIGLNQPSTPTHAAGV
Bone morphogenetic protein receptor type-2 (Homo sapiens), sequence (Q13873 whole entry): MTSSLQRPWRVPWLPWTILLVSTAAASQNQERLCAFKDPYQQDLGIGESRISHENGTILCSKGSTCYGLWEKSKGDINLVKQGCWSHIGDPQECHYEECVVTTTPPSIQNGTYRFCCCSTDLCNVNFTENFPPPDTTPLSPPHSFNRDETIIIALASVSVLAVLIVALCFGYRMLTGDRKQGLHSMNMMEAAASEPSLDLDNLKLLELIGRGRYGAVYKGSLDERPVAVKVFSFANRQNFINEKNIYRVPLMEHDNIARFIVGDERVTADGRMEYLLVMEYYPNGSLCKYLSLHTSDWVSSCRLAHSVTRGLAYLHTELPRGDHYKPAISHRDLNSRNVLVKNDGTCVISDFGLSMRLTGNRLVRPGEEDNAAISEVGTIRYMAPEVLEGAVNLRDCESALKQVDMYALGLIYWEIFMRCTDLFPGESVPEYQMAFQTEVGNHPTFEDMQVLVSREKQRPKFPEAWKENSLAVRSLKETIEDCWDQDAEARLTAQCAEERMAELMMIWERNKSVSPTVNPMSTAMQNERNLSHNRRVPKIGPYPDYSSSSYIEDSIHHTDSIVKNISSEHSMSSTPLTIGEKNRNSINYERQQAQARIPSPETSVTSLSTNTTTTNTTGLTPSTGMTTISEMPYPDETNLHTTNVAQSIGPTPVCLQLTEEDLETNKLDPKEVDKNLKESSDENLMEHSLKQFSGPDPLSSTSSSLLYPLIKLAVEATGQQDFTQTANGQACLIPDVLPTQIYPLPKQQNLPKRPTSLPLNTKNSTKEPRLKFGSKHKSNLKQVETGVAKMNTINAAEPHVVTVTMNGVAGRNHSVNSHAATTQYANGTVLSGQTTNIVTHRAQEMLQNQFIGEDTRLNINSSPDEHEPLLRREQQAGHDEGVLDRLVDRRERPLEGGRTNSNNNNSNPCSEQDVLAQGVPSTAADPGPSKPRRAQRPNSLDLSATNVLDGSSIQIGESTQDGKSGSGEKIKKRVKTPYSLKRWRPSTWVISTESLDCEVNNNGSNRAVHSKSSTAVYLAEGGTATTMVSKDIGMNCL
Casein kinase I isoform gamma-1 (Homo sapiens), sequence (Q9HCP0 whole entry, looked up, canonical isoform): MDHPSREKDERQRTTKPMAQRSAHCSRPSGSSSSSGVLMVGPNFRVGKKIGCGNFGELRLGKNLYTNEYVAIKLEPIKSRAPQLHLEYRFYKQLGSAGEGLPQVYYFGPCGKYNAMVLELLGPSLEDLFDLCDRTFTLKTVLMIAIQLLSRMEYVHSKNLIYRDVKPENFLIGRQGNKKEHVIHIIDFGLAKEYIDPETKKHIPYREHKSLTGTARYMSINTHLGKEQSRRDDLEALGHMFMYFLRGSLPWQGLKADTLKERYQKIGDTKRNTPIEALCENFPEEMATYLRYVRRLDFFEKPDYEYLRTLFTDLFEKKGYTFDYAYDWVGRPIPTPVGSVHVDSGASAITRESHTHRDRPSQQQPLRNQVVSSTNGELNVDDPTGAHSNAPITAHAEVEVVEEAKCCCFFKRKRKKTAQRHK
Phosphatidylinositol 4,5-bisphosphate 3-kinase catalytic subunit alpha isoform (Homo sapiens), P42336 [C420R], sequence (P42336 whole entry C420R, canonical isoform): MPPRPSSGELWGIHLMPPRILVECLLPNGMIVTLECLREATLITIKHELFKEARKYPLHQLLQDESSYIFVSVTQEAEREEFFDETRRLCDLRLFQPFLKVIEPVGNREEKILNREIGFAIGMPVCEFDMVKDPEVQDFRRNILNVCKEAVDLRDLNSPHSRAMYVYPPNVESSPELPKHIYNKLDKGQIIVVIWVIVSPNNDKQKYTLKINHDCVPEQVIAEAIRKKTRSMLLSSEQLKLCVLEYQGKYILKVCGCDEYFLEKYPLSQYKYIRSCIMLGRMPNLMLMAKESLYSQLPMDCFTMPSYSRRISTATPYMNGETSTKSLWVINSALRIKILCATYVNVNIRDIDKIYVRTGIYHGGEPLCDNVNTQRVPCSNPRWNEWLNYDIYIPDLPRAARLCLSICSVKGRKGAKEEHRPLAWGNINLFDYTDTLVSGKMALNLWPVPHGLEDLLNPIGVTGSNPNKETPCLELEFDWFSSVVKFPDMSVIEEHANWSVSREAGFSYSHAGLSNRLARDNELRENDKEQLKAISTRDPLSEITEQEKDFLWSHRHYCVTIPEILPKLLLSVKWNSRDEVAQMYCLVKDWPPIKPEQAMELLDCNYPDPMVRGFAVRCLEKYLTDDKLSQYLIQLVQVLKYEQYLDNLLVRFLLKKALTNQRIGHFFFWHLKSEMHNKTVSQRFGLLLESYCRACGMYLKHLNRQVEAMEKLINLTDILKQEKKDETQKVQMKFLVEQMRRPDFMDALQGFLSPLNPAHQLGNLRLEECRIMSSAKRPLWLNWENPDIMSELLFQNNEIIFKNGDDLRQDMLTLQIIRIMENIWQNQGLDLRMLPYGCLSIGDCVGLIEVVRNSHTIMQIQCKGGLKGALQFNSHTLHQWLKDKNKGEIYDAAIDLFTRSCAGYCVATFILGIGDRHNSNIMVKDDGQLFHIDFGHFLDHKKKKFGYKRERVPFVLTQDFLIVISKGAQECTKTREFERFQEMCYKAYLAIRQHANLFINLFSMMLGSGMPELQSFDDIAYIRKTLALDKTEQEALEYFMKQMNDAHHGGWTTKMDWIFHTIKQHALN
Tyrosine-protein kinase JAK3 (Homo sapiens), sequence (P52333 whole entry): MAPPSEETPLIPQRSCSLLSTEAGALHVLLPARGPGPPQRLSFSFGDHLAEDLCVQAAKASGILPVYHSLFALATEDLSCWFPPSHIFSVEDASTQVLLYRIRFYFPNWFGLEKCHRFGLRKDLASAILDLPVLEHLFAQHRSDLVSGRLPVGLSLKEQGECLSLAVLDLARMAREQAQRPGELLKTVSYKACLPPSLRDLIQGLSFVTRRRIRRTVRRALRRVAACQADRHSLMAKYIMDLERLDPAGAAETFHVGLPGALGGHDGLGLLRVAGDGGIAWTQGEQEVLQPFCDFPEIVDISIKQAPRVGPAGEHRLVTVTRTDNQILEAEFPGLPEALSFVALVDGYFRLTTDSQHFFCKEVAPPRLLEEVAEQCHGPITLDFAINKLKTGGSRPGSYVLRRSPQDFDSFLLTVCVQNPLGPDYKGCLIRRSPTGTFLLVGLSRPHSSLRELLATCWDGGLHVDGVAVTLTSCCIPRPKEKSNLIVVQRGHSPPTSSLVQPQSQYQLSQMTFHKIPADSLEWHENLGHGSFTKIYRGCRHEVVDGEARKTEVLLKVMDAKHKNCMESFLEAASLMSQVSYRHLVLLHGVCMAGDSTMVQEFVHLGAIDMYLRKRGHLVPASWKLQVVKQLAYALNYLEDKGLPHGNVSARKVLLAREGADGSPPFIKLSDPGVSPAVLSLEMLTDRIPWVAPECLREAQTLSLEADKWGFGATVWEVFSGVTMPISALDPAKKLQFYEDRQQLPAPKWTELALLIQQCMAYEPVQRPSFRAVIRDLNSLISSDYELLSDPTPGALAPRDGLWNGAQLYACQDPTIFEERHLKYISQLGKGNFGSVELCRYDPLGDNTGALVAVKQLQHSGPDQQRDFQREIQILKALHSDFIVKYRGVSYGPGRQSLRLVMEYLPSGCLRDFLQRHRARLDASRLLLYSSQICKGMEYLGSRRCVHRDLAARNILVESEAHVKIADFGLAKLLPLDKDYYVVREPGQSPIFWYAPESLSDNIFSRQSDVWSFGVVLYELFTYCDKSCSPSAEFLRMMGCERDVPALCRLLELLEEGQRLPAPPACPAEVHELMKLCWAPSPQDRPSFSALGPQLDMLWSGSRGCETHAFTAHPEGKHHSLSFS
Interleukin-1 receptor-associated kinase 3 (Homo sapiens), sequence (Q9Y616 whole entry, canonical isoform): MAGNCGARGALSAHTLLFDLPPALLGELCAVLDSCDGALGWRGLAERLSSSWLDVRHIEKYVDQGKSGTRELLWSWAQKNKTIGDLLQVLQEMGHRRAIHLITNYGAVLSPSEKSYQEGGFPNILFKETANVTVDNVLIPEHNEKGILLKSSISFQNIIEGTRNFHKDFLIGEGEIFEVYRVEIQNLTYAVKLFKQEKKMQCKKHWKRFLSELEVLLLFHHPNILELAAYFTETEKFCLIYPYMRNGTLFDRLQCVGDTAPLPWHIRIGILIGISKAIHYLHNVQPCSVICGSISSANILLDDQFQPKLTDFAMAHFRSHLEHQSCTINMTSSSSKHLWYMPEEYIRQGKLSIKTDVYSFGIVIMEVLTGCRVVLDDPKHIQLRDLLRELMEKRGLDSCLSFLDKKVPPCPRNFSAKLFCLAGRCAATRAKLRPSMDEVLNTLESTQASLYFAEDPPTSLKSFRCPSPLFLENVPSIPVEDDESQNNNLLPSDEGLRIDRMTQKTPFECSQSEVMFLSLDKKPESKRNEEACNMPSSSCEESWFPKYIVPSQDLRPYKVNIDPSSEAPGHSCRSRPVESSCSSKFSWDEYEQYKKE
Cholecystokinin receptor type A (Homo sapiens), sequence (P32238 whole entry, canonical isoform): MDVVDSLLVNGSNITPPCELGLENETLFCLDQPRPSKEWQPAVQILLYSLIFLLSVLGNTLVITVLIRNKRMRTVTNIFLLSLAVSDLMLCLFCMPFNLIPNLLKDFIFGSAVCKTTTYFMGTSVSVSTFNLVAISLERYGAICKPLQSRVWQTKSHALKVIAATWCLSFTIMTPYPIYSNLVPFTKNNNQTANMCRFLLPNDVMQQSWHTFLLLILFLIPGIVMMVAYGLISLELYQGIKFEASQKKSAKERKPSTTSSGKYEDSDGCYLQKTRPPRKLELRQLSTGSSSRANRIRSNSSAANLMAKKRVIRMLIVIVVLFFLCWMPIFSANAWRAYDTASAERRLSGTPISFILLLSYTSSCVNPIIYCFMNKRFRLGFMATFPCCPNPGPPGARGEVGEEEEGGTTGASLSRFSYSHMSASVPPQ

Compound | residual activity [1] | residual activity [2] | residual activity [3] | residual activity [4] | residual activity [5] | residual activity [6] | residual activity [7] | residual activity [8] | residual activity [9] | residual activity [10] | % Inhibition of Control Specific Binding (Mean n=2) [11] | residual activity [12] | residual activity [13] | residual activity [14] | residual activity [15] | residual activity [16] | residual activity [17] | % Inhibition of Control Specific Binding (Mean n=2) [18] | residual activity [19] | residual activity [20] | further results
CCCOc1ccc([C@H]2[C@H](C(=O)O)[C@@H](c3ccc4c(c3)OCO4)CN2CC(=O)Nc2c(CC)cccc2CC)cc1 [A-192621] | 75% | 93% | 100% | 74% | 100% | 93% | 87% | 90% | 77% | 66% | -8.8% | 84% | 86% | 100% | 89% | 75% | 76% | -4.4% | 98% | 93% | residual activity [21]: 100%; % Inhibition of Control Specific Binding (Mean n=2) [22]: 63.1%; residual activity [23]: 91%; % Inhibition of Control Specific Binding (Mean n=2) [24]: -11.6%; residual activity [25]: 96%; residual activity [26]: 68%; % Inhibition of Control Specific Binding (Mean n=2) [27]: -7.7%; residual activity [28]: 85%; residual activity [29]: 71%; residual activity [30]: 98%; residual activity [31]: 65%; residual activity [32]: 99%; residual activity [33]: 100%; residual activity [34]: 95%; residual activity [35]: 53%; residual activity [36]: 99%; residual activity [37]: 81%; residual activity [38]: 80%
CCCOc1ccc([C@@H]2[C@@H](C(=O)O)[C@H](c3ccc4c(c3)OCO4)CN2CC(=O)Nc2c(CC)cccc2CC)cc1 [A-1806262] | 81% | 95% | 97% | 89% | 100% | 88% | 100% | 89% | 100% | 93% | -7.1% | 73% | 100% | 100% | 66% | 87% | 96% | -10% | 88% | 100% | residual activity [21]: 96%; % Inhibition of Control Specific Binding (Mean n=2) [22]: 75.9%; residual activity [23]: 91%; % Inhibition of Control Specific Binding (Mean n=2) [24]: -11.6%; residual activity [25]: 100%; residual activity [26]: 81%; % Inhibition of Control Specific Binding (Mean n=2) [27]: 5.2%; residual activity [28]: 99%; residual activity [29]: 81%; residual activity [30]: 100%; residual activity [31]: 69%; residual activity [32]: 100%; residual activity [33]: 100%; residual activity [34]: 100%; residual activity [35]: 69%; residual activity [36]: 88%; residual activity [37]: 91%; residual activity [38]: 81%
